The results in this text go back to PubChem BioAssay AID248 (DTP/NCI, 2004).

For this assay, the system named is L1210 leukemia ip in BDF1 mice, survival T/C. The assay is described as follows: NCI In Vivo Anticancer Drug Screen. Data for tumor model L1210 Leukemia (intraperitoneal) in B6D2F1 (BDF1) mice. As to conditions: endpoint: mean survival time, higher = longer survival. Put shortly: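 Transplantable tumor model; survival measured in treated vs vehicle control mice. Value = treated/control.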

[1] abbreviates: dose: 100.0 mg/kg/injection, schedule: Q04DX003 (ip), vehicle: saline.
Setting [2] is: dose: 200.0 mg/kg/injection, schedule: Q04DX003 (ip), vehicle: saline.
Where [3] appears, read: dose: 100.0 mg/kg/injection, schedule: Q01DX001 (ip), vehicle: saline.
The mark [4] stands for this setting: dose: 200.0 mg/kg/injection, schedule: Q01DX001 (ip), vehicle: saline.
The mark [5] stands for this setting: dose: 400.0 mg/kg/injection, schedule: Q01DX001 (ip), vehicle: saline.
Setting [6] is: dose: 50.0 mg/kg/injection, schedule: Q01DX001 (ip), vehicle: saline.

Where “and” joins values, the source holds several entries; their conditions need not be identical. Identical values can stand only once. Toxic doses and inconclusive results are not listed.

As for `NC(=O)N(Cc1ccccc1)N=O`, the T/C (dose: 6.25 mg/kg/injection, schedule: Q01DX Z (ip), vehicle: carboxymethylcellulose (CMC)) was 101 % of control; the T/C (dose: 12.5 mg/kg/injection, schedule: Q01DX Z (ip), vehicle: carboxymethylcellulose (CMC)) was 116 % of control; the T/C (dose: 25.0 mg/kg/injection, schedule: Q01DX Z (ip), vehicle: carboxymethylcellulose (CMC)) was 104 % of control; the T/C (dose: 50.0 mg/kg/injection, schedule: Q01DX Z (ip), vehicle: carboxymethylcellulose (CMC)) was 110 % of control; the T/C (dose: 100.0 mg/kg/injection, schedule: Q01DX Z (ip), vehicle: carboxymethylcellulose (CMC)) was 116 % of control.
For the compound `Cc1ccc(S(=O)(=O)OC2CCC(C(C)(C)C)CC2Cl)cc1` (configuration not stated), the T/C runs as follows: (dose: 100.0 mg/kg/injection, schedule: Q01DX009 (ip), vehicle: Klucel (hydroxypropylcellulose) (HPC)) 98 % of control; under setting [1], 98 % of control; (dose: 200.0 mg/kg/injection, schedule: Q01DX009 (ip), vehicle: Klucel (hydroxypropylcellulose) (HPC)) 108 % of control; under setting [2], 98 % of control; (dose: 400.0 mg/kg/injection, schedule: Q01DX009 (ip), vehicle: Klucel (hydroxypropylcellulose) (HPC)) 98 % of control; (dose: 400.0 mg/kg/injection, schedule: Q04DX003 (ip), vehicle: saline) 94 % of control.
As for `Cc1cn(C2OC(CO)C(O)C2O)c(=O)[nH]c1=O` (configuration not stated), the T/C (dose: 3.75 mg/kg/injection, schedule: Q01DX Z (ip), vehicle: saline) is 86 % of control; the T/C (dose: 6.25 mg/kg/injection, schedule: Q03HX024 (ip), vehicle: saline) was 102 % of control; the T/C (dose: 7.5 mg/kg/injection, schedule: Q01DX Z (ip), vehicle: saline) is 88 % of control; the T/C (dose: 12.5 mg/kg/injection, schedule: Q03HX024 (ip), vehicle: saline) is 94 % of control; the T/C (dose: 25.0 mg/kg/injection, schedule: Q03HX024 (ip), vehicle: saline) is 107 % of control; the T/C (dose: 30.0 mg/kg/injection, schedule: Q01DX Z (ip), vehicle: saline) was 86 % of control. The T/C runs as follows: (dose: 50.0 mg/kg/injection, schedule: Q01DX001 (ip), vehicle: carboxymethylcellulose (CMC)) 116 % of control; (dose: 50.0 mg/kg/injection, schedule: Q03HX024 (ip), vehicle: saline) 102 % of control; (dose: 60.0 mg/kg/injection, schedule: Q01DX Z (ip), vehicle: saline) 92 % of control; (dose: 100.0 mg/kg/injection, schedule: Q01DX001 (ip), vehicle: carboxymethylcellulose (CMC)) 97 % of control; under setting [3], 87 % of control; (dose: 200.0 mg/kg/injection, schedule: Q01DX001 (ip), vehicle: carboxymethylcellulose (CMC)) 106 % of control. Also, the T/C is 92 % of control under setting [4]; 95 % of control (dose: 400.0 mg/kg/injection, schedule: Q01DX001 (ip), vehicle: carboxymethylcellulose (CMC)); 90 % of control under setting [5].
As for `O=C(Nc1ccc(C2=NCCN2)cc1)Nc1cccc(NC(=O)Nc2cccc(C3=NCCN3)c2)c1`, the T/C was 120 % of control and 90 % of control (dose: 1.0 mg/kg/injection, schedule: Q01DX Z (ip), vehicle: carboxymethylcellulose (CMC)); 101 % of control and 107 % of control (dose: 2.0 mg/kg/injection, schedule: Q01DX Z (ip), vehicle: carboxymethylcellulose (CMC)); 113 % of control (dose: 4.0 mg/kg/injection, schedule: Q01DX Z (ip), vehicle: carboxymethylcellulose (CMC)); 121 % of control and 244 % of control (dose: 8.0 mg/kg/injection, schedule: Q01DX Z (ip), vehicle: carboxymethylcellulose (CMC)); 286 % of control (dose: 8.0 mg/kg/injection, schedule: Q01DX Z (ip), vehicle: water); 332 % of control (dose: 16.0 mg/kg/injection, schedule: Q01DX Z (ip), vehicle: carboxymethylcellulose (CMC)). The T/C is 172 % of control (dose: 16.0 mg/kg/injection, schedule: Q01DX Z (ip), vehicle: water); 104 % of control (dose: 31.0 mg/kg/injection, schedule: Q01DX Z (oral), vehicle: water); 112 % of control (dose: 62.0 mg/kg/injection, schedule: Q01DX Z (oral), vehicle: water); 104 % of control (dose: 125.0 mg/kg/injection, schedule: Q01DX Z (oral), vehicle: water); 102 % of control (dose: 250.0 mg/kg/injection, schedule: Q01DX Z (oral), vehicle: water).
Regarding `CCCCCCCCC1OCC(C)O1` (configuration not stated), the T/C by setting is: (dose: 24.0 mg/kg/injection, schedule: Q01DX Z (ip), vehicle: methylcellulose (MC)) 94 % of control and 92 % of control; (dose: 37.0 mg/kg/injection, schedule: Q01DX Z (ip), vehicle: methylcellulose (MC)) 96 % of control and 107 % of control; (dose: 55.0 mg/kg/injection, schedule: Q01DX Z (ip), vehicle: methylcellulose (MC)) 86 % of control; (dose: 82.5 mg/kg/injection, schedule: Q01DX Z (ip), vehicle: methylcellulose (MC)) 97 % of control and 92 % of control; (dose: 124.0 mg/kg/injection, schedule: Q01DX Z (ip), vehicle: methylcellulose (MC)) 94 % of control.
For `NC(C(=O)O)c1ccc(F)cc1` (configuration not stated), the T/C runs as follows: under setting [6], 104 % of control; under setting [3], 104 % of control; under setting [4], 101 % of control.
As for `CN(N)C(=O)Nc1ccccc1[N+](=O)[O-]`, the T/C reads like this: (dose: 75.0 mg/kg/injection, schedule: Q01DX001 (ip), vehicle: carboxymethylcellulose (CMC)) 96 % of control; (dose: 150.0 mg/kg/injection, schedule: Q01DX001 (ip), vehicle: carboxymethylcellulose (CMC)) 102 % of control.
`Nc1nc2c(c(=O)[nH]1)NC(CCNc1ccc(C(=O)NC(CCC(=O)O)C(=O)O)cc1)CN2` (configuration not stated): the T/C is 104 % of control (dose: 50.0 mg/kg/injection, schedule: Q01DX001 (ip), vehicle: other); 113 % of control under setting [6]; 101 % of control (dose: 100.0 mg/kg/injection, schedule: Q01DX001 (ip), vehicle: other); 116 % of control under setting [3]; 119 % of control (dose: 108.0 mg/kg/injection, schedule: Q01DX009 (ip), vehicle: other); 110 % of control (dose: 200.0 mg/kg/injection, schedule: Q01DX001 (ip), vehicle: other). Moreover, the T/C under setting [4] is 107 % of control; the T/C (dose: 300.0 mg/kg/injection, schedule: Q01DX009 (ip), vehicle: other) is 116 % of control; the T/C (dose: 400.0 mg/kg/injection, schedule: Q01DX001 (ip), vehicle: other) was 110 % of control; the T/C under setting [5] is 115 % of control; the T/C (dose: 500.0 mg/kg/injection, schedule: Q01DX009 (ip), vehicle: other) was 112 % of control.
For `COc1ccc(C2CCCN(C)O2)cc1` (configuration not stated), the T/C reads like this: (dose: 100.0 mg/kg/injection, schedule: Q01DX001 (ip), vehicle: acetone) 102 % of control; (dose: 200.0 mg/kg/injection, schedule: Q01DX001 (ip), vehicle: acetone) 91 % of control; (dose: 400.0 mg/kg/injection, schedule: Q01DX001 (ip), vehicle: acetone) 98 % of control.
Regarding `CCOc1cc[n+]([O-])cc1`, the T/C (dose: 50.0 mg/kg/injection, schedule: Q01DX009 (ip), vehicle: saline) is 90 % of control; the T/C (dose: 100.0 mg/kg/injection, schedule: Q01DX001 (ip), vehicle: Klucel (hydroxypropylcellulose) (HPC)) was 96 % of control; the T/C (dose: 100.0 mg/kg/injection, schedule: Q01DX009 (ip), vehicle: saline) is 90 % of control; the T/C under setting [1] is 100 % of control; the T/C (dose: 200.0 mg/kg/injection, schedule: Q01DX001 (ip), vehicle: Klucel (hydroxypropylcellulose) (HPC)) is 108 % of control; the T/C (dose: 200.0 mg/kg/injection, schedule: Q01DX009 (ip), vehicle: saline) is 90 % of control. In addition, the T/C under setting [2] was 96 % of control.
Turning to `O=C(NCCCNC(=O)Nc1ccc(C2=NCC(O)CN2)cc1)Nc1ccc(C2=NCC(O)CN2)cc1` (configuration not stated), the T/C (dose: 30.7 mg/kg/injection, schedule: Q01DX015 (ip), vehicle: methylcellulose (MC)) was 104 % of control and the T/C (dose: 61.5 mg/kg/injection, schedule: Q01DX015 (ip), vehicle: methylcellulose (MC)) is 95 % of control.
For `C/C(=N/N(C)C)c1cccc(N)c1`, the T/C is 98 % of control under setting [3], 93 % of control under setting [4] and 101 % of control under setting [5].
Consider `CN(C)CSc1ccccc1`, for which the T/C runs as follows: (dose: 10.0 mg/kg/injection, schedule: Q01DX001 (ip), vehicle: saline) 101 % of control; (dose: 20.0 mg/kg/injection, schedule: Q01DX001 (ip), vehicle: saline) 110 % of control; (dose: 40.0 mg/kg/injection, schedule: Q01DX001 (ip), vehicle: saline) 104 % of control; (dose: 80.0 mg/kg/injection, schedule: Q01DX001 (ip), vehicle: saline) 98 % of control.
